# Laboratory results from US20120251628A1, “COMPOSITIONS AND METHODS FOR TREATMENT OF CANCER” (priority 2011, published 2012).
# Columns and labels:
# [1] = tested on: acute promyelocytic leukemia (APL); details: patients to which arsenic trioxide was administered; cited from earlier work
# [2] = tested on: CT26 (mouse colon cancer); assay: DCE-MRI of tumor vascularity (Kep) in CT26 tumor mice; format: in vivo
# Description: To determine whether the occurrence of central necrosis of tumors 24 hours after treatment was caused by the reduction of vascularity, DCE-MRI was used before the medication was administered and 24 hours after administration.
# Inoculate CT26 (mouse colon cancer) 2×10^6 cell subcutaneously into mice on the upper parts of their thighs.
# After checking the tumor size between 6 to 10 mm, acquire images through MRI.
# Image Acquisition: Use a magnetic resonance imaging device (i.e., 3 Tesla Intera human clinical scanner; Philips medical systems) and a mouse coil with an inner diameter of 4 cm to get images. Acquire images before the drug is administered and those 24 hours after that for two days.
# MR Pulse Sequence as follows: Dynamic Contrast enhanced MRI scan: FOV (mm)=50×35; RFOV (%)=71; Matrix scan=112; reconstruction=224; TR/TE (ms)=12/4.0; slice thickness=1 mm; slice number=11; dynamic scans=60.
# i. Conduct an experiment to the subjects under anesthesia by using an inhalation anesthetic mixing 1.5% isoflurane in 100% oxygen at a flow rate of 1 L/min.
# ii. Cannulate an intravenous injection line through the tail vein to inject a contrast agent.
# iii. Use Gd-DTPA (Magnevist, Schering, Germany, 281 mg/kg) as a contrast agent and get pre-contrast images before injecting the contrast agent and post-contrast images after injecting it.
# iv. After getting the images, inject KML001 (10 mg/kg) and Arsenic trioxide (7.5 mg/kg) intraperitoneally.
# v. Get images through a dynamic scan again 24 hours after injection.
# Accordingly, the groups of animals with which the DCE-MRI data was obtained are as follows: Group of animals treated with ATO: n=4, Group of animals treated with Saline: n=4 and Group of animals treated with KML001: n=6.
# As the low data in MRI was mapped from each result of the DCE-MRI to the positive control group of animals treated with ATO, the negative control group of animals treated with saline and the experimental group of animals treated with KML001, Kep values important for tumor vascularity were calculated. Kep (rate constant) is the back diffusion rate constant from interstitial space to vascular space, reflecting leakage of tumor vessels, i.e., a measurement of vascularity.
substance,measurement,setting,value
"arsenic trioxide [ATO, reference compound]",patients showing therapeutic effects without acute toxicity,[1],more than 80%
same,"Kep values (back diffusion rate constant, tumor vascularity)","[2]; 24 hours after intraperitoneal injection vs pre-treatment, KML001 10 mg/kg, ATO 7.5 mg/kg",significantly reduced
same,contrast enhancement of the tumors in the MRI,[2]; 24 hours after treatment,decreased
